This passage reports MIC results from DBAASP.

Molecules are shown by their SMILES. Converted amounts (≈) assume the structure as drawn. Some results are limits rather than exact numbers.

Test systems include Pseudomonas aeruginosa; Bacillus cereus; Vibrio parahaemolyticus; Candida albicans; Cryptococcus neoformans; Staphylococcus aureus; Vibrio alginolyticus; Escherichia coli; Aeromonas hydrophila; Klebsiella pneumoniae; Aspergillus fumigatus; Pasteurella multocida; Bibersteinia trehalosi; Escherichia coli C25.
What all share (test): ≥ marks a high value that may be exact or a test limit, other limits are often not marked, values filed in µg/mL are converted to µM
In experiment [1] the test system is Pseudomonas aeruginosa CICC 21625.
Experiment [2] concerns Pseudomonas aeruginosa ATCC 27853.
For experiment [3], the system named is Pseudomonas aeruginosa 21328.
In experiment [4] the test system is Pseudomonas aeruginosa CICC 11411.
In experiment [5] the test system is Pseudomonas aeruginosa CICC 11431.
Experiment [6] concerns Pseudomonas aeruginosa CICC 21630.
Experiment [7] has as its system Escherichia coli ATCC 25922.
Experiment [8] concerns Staphylococcus aureus ATCC 29213.
Experiment [9] deals with Pseudomonas aeruginosa CICC 11421.
The subject of experiment [10] is Pseudomonas aeruginosa CICC 10419.
For experiment [11], the system named is Pseudomonas aeruginosa 25349.
The test system of experiment [12] is Staphylococcus epidermidis.
Experiment [13] deals with Corynebacterium glutamicum.
Experiment [14] concerns Corynebacterium pseudotuberculosis ATCC 19410.
For experiment [15], the system named is Mannheimia haemolytica Serovar 6.
For experiment [16], the system named is Pseudomonas aeruginosa PAO1.
Experiment [17] deals with Mannheimia haemolytica Serovar 1.
Experiment [18] has as its system Mannheimia haemolytica Serovar 2.
For experiment [19], the system named is Salmonella enterica subsp. arizonae.
The subject of experiment [20] is Staphylococcus aureus ATCC 25923.
Experiment [21] concerns Staphylococcus aureus 3399.
The subject of experiment [22] is Staphylococcus aureus 3518.
For experiment [23], the system named is Listeria monocytogenes KCTC 19111.
In experiment [24] the test system is Staphylococcus aureus CCARM 3125.
Experiment [25] relates to Salmonella typhimurium KCTC 1926.
For experiment [26], the system named is Staphylococcus aureus CCARM 3709.
In experiment [27] the test system is Pseudomonas aeruginosa ATCC 15692.
Experiment [28] relates to Pseudomonas aeruginosa 3241.
Experiment [29] has as its system Staphylococcus epidermidis KCTC 1917.
In experiment [30] the test system is Pseudomonas aeruginosa 4007.
The subject of experiment [31] is Pseudomonas aeruginosa CCARM 2075.
Experiment [32] relates to Pseudomonas aeruginosa CCARM 2073.

`C[C@H](N)C(=O)N[C@@H](CCCN=C(N)N)C(=O)N[C@@H](CCCN=C(N)N)C(=O)N[C@@H](C)C(=O)N[C@@H](CCCN=C(N)N)C(=O)N[C@@H](CCCN=C(N)N)C(=O)N[C@@H](CCCN=C(N)N)C(=O)N[C@@H](Cc1c[nH]c2ccccc12)C(=O)N[C@@H](CCCN=C(N)N)C(=O)N[C@@H](CCCN=C(N)N)C(=O)N[C@@H](CCCN=C(N)N)C(=O)N[C@@H](C)C(=O)N[C@@H](CCCN=C(N)N)C(=O)N[C@@H](CCCN=C(N)N)C(=O)N[C@@H](C)C(N)=O` [ARRARRRWRRRARRA]: the MIC in experiment [1] was ≥ 125 µM; in experiment [2] it was 62.4 µM (≈ 128 µg/mL); in [3], ≥ 125 µM; in experiment [4] it was ≥ 125 µM; in experiment [5], ≥ 125 µM; in experiment [6], ≥ 125 µM. Also, the MIC is 31.2 µM (≈ 64 µg/mL) in experiment [7]; 31.2 µM (≈ 64 µg/mL) in experiment [8]; ≥ 125 µM in experiment [9]; ≥ 125 µM in experiment [10]; 15.6 µM (≈ 32 µg/mL) in experiment [11].

As for `CC[C@H](C)[C@H](NC(=O)[C@H](C)NC(=O)CNC(=O)[C@@H](NC(=O)[C@@H](NC(=O)[C@H](Cc1cnc[nH]1)NC(=O)[C@H](CCCN=C(N)N)NC(=O)[C@H](Cc1ccccc1)NC(=O)[C@@H](N)Cc1ccccc1)[C@@H](C)CC)C(C)C)C(=O)N[C@@H](CO)C(=O)N[C@@H](CCCN=C(N)N)C(=O)N[C@H](C(=O)N[C@@H](Cc1ccccc1)C(=O)NCC(=O)N[C@@H](CCC(N)=O)C(=O)N[C@@H](CCCCN)C(=O)N[C@@H](CCC(N)=O)C(=O)N[C@@H](CCCN=C(N)N)C(=O)N[C@@H](CC(=O)O)C(=O)N[C@@H](CCSC)C(=O)N[C@@H](C)C(=O)N[C@@H](CC(=O)O)C(=O)O)[C@@H](C)CC` [FFRHIVGAISRIFGQKQRDMAD], the MIC in the experiment on Pseudomonas aeruginosa is 35.4 µM (≈ 91.7 µg/mL); against Bacillus cereus, 17.7 µM (≈ 45.8 µg/mL); in experiment [12], 17.7 µM (≈ 45.8 µg/mL); in the experiment with Vibrio parahaemolyticus, ≥ 50 µM; against Candida albicans, 17.7 µM (≈ 45.8 µg/mL); in the experiment with Cryptococcus neoformans it was 2.21 µM (≈ 5.73 µg/mL). For the same molecule, the minimum inhibitory concentration (MIC) with Staphylococcus aureus was 4.42 µM (≈ 11.5 µg/mL); against Vibrio alginolyticus, ≥ 50 µM; in experiment [13], 2.21 µM (≈ 5.73 µg/mL); with Escherichia coli, 17.7 µM (≈ 45.8 µg/mL); with Aeromonas hydrophila it was ≥ 50 µM.

With `CC[C@H](C)[C@H](N)C(=O)N[C@@H](CCCN=C(N)N)C(=O)N[C@@H](CCCN=C(N)N)C(=O)N[C@H](C(=O)N[C@H](C(=O)N[C@@H](CCCN=C(N)N)C(=O)N[C@@H](CCCCN)C(=O)N[C@H](C(=O)N[C@H](C(=O)N[C@@H](Cc1cnc[nH]1)C(=O)N[C@H](C(=O)N[C@H](C(=O)N[C@@H](CCCCN)C(=O)N[C@@H](CCCCN)C(=O)O)[C@@H](C)CC)[C@@H](C)CC)[C@@H](C)CC)[C@@H](C)CC)[C@@H](C)CC)[C@@H](C)CC` [IRRIIRKIIHIIKK], the MIC is 11.1 µM (≈ 20 µg/mL) in experiment [14]; 3.72 µM (≈ 6.7 µg/mL) in experiment [15]; > 11.1 µM against Klebsiella pneumoniae; 22.2 µM (≈ 40 µg/mL) in the experiment with Aspergillus fumigatus; 2.78 µM (≈ 5 µg/mL) in [16]; 5.55 µM (≈ 10 µg/mL) in experiment [17]. In addition, the MIC is 8.33 µM (≈ 15 µg/mL) in the experiment on Pasteurella multocida; 2.33 µM (≈ 4.2 µg/mL) in [18]; 11.1 µM (≈ 20 µg/mL) in the experiment with Bibersteinia trehalosi; 11.1 µM (≈ 20 µg/mL) in experiment [19]; > 11.1 µM in the experiment with Staphylococcus aureus.

As for `CC[C@H](C)[C@H](NC(=O)CNC(=O)[C@H](CCCCN)NC(=O)[C@H](Cc1ccc(O)cc1)NC(=O)[C@@H](NC(=O)[C@H](CCCCN)NC(=O)[C@H](Cc1ccccc1)NC(=O)[C@H](Cc1c[nH]c2ccccc12)NC(=O)[C@@H](N)CCCCN)C(C)C)C(=O)N[C@@H](Cc1ccc(O)cc1)C(=O)N[C@@H](CCCCN)C(=O)N[C@@H](CCCCN)C(=O)N[C@@H](CCCCN)C(N)=O` [KWFKVYKGIYKKK], the MIC in [20] was 33 µM (≈ 56.6 µg/mL); against Escherichia coli C25, 8.2 µM (≈ 14.1 µg/mL).

Take `NCCCC[C@H](NC(=O)[C@H](Cc1ccc(O)cc1)NC(=O)[C@H](Cc1c[nH]c2ccccc12)NC(=O)[C@H](CCCCN)NC(=O)[C@H](CCCCN)NC(=O)[C@H](Cc1ccc(O)cc1)NC(=O)[C@H](Cc1c[nH]c2ccccc12)NC(=O)[C@H](CCCCN)NC(=O)[C@H](CCCCN)NC(=O)[C@H](Cc1ccc(O)cc1)NC(=O)[C@H](Cc1c[nH]c2ccccc12)NC(=O)[C@@H](N)CCCCN)C(N)=O` [KWYKKWYKKWYK]: the MIC in [21] was determined as 4 µM (≈ 7.34 µg/mL); in [22], 2 µM (≈ 3.67 µg/mL); in experiment [23], 2 µM (≈ 3.67 µg/mL); in experiment [24] it was 4 µM (≈ 7.34 µg/mL); in [25], 2 µM (≈ 3.67 µg/mL); in experiment [26], 2 µM (≈ 3.67 µg/mL). Also, the MIC in experiment [27] was 2 µM (≈ 3.67 µg/mL); in experiment [28] it was 2 µM (≈ 3.67 µg/mL); in [20], 4 µM (≈ 7.34 µg/mL); in [29], 2 µM (≈ 3.67 µg/mL); in experiment [30], 4 µM (≈ 7.34 µg/mL); in experiment [31] it was 2 µM (≈ 3.67 µg/mL). The MIC in experiment [7] and in experiment [32] was 2 µM (≈ 3.67 µg/mL) throughout.

As usually defined, the MIC is the least concentration at which growth counts as inhibited. A higher MIC goes with a need for much substance.
